How the values were obtained:
[1] = rat, in vivo, po, 20 mg/kg
Procedure: The single oral dose of reference Olmesartan Medoxomil was 20 mg/kg, and that of nanostructured Olmesartan Medoxomil formulation was 75.8 mg/kg which corresponds to 20 mg/kg active agent. Both test substances were administered via gastric tube in a dosing volume of 5 ml/kg. The vehicle of the test items was sterile 0.9% NaCl solution supplemented with 0.25% methylcellulose and the suspension was kept homogenous by continuous stirring during treatment in order to minimize the error resulting from the sedimentation.
Male Wistar rats (purchased from Laboratory Animal Center, University of Szeged) were maintained on a standard pellet rodent diet (Bioplan Ltd, Isaszeg, Hungary) under temperature and light-controlled conditions with tap water available ad libitum. The acclimatization period was at least 4 days. Rats were randomized into groups of 6 and each group was used for blood sampling at different time period after Olmesartan Medoxomil treatment. All animals were fasting for 16 hours before oral treatment. […]
An aliquot of 200 μl serum was combined with 20 μl of internal standard working solution and 1.2 ml methanol for protein precipitation. […] Serum Olmesartan concentrations were determined using a standard curve set up from Olmesartan prepared from Olmesartan Medoxomil by enzymatic hydrolysis. […]

[2] = cited from earlier work
[3] = cited from earlier work; remark: listed apart in the source
[4] = cited from earlier work; remark: listed apart in the source
[5] = rats; cited from earlier work

SMILES	Area under the serum concentration curve between 15 and 360 min (AUC15-360 min) [1] [µg·min/mL]	tmax [1] [min]	solubility in methanol ([2]; methanol)	solubility in water ([2]; water)	absolute bioavailability ([3]; in vivo)	effect of food on bioavailability ([3]; in vivo)	renal clearance ([3]; in vivo) [L/h]	terminal elimination half-life ([3]; in vivo)	total plasma clearance ([3]; in vivo) [L/h]	accumulation in plasma ([3]; once-daily dosing)	bound to plasma proteins [4] [%]	crossing of the blood-brain barrier [5]	distribution to milk [5]	passage across the placental barrier [5]
CCCc1nc(C(C)(C)O)c(C(=O)OCc2oc(=O)oc2C)n1Cc1ccc(-c2ccccc2-c2nnn[nH]2)cc1 [Olmesartan Medoxomil, 2,3-dihydroxy-2-butenyl 4-(1-hydroxy-1-methylethyl)-2-propyl-1-[p-(o-1H-tetrazol-5-ylphenyl)benzyl]imidazole-5-carboxylate, cyclic 2,3-carbonate]	382.5	120	sparingly soluble	practically insoluble	–	–	–	–	–	–	–	–	–	–
CCCc1nc(C(C)(C)O)c(C(=O)O)n1Cc1ccc(-c2ccccc2-c2nnn[nH]2)cc1 [Olmesartan]	–	–	–	–	approximately 26%	Food does not affect the bioavailability	0.6	approximately 13 hours	1.3	no accumulation in plasma	99	crossed the blood-brain barrier poorly, if at all	distributed to milk at low levels	passed across the placental barrier
